From patent publication US11306063B2, “Heterocyclic naphthoquinones derivatives for use in the treatment of cancers including Cushing disease” (Commissariat a l'Energie Atomique et aux Energies …, priority 2016, dated 2022)
Where two headings read alike, the source gives them in different places.

What was measured:
[1] = target: T1, USP2^CD (purified catalytic domain of USP2) (Homo sapiens, UniProt O75604); assay: Inhibition of purified USP2^CD enzymatic activity (Ub-AMC or Ub-Rho substrate); type: biochemical; settings: for inhibition at 0.01 µM: 0.01 μM compound; for inhibition at 0.05 µM: 0.05 μM compound; for inhibition at 0.1 µM: 0.1 μM compound; for inhibition at 0.5 µM: 0.5 μM compound; for inhibition at 1 µM: 1 μM compound; for inhibition at 5 µM: 5 μM compound; for inhibition at 10 µM: 10 μM compound; for inhibition at 25 µM: 25 μM compound; for inhibition at 50 µM: 50 μM compound; for IC50: Ub-AMC substrate at 1 μM, Table 2b, read-out: IC50 USP2 CD
T1 construct: The purified catalytic domain of USP2 (USP2^CD, in-house purified); His; made in house; host or cells: E. coli BL21 Gold
T1 sequence (O75604 267-599 limits assumed): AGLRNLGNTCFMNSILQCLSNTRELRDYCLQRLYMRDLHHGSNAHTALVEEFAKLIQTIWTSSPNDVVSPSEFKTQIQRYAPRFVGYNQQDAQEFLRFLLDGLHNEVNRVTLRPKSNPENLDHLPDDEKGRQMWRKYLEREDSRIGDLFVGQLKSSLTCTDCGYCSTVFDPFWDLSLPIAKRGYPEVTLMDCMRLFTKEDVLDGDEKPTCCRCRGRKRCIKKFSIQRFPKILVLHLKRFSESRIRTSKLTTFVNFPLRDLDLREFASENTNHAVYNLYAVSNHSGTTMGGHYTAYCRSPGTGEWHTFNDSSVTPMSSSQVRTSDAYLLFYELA
Experimental: (§1) USP2CD or USP8CD were expressed in E. coli BL21 Gold. Cells were grown in LB Miller to mid-log phase and induced by addition of 0.5 mM IPTG for USP2CD for 5 h at 20° C., while 1 mM IPTG was added for USP8CD for 3 h at 37° C. Then, cells were harvested and frozen at −80° C.
For His-tagged USP2CD, cells were resuspended in buffer C (10 mM TRIS pH 8.0, 100 mM NaCl, 10 mM Imidazole) and lysed using a sonicator. The lysate was clarified by centrifugation and applied to Ni Sepharose6 Fast Flow resin (GE Healthcare). The resin was sequentially washed with buffer C, then with buffer C containing 50 mM Imidazole. Protein sample was eluted from the resin using buffer C containing 250 mM Imidazole. The eluted protein was buffer exchanged by gel-filtration on a Superdex 200 10/300 GL column (GE Healthcare) equilibrated in Buffer D (15 mM Bis-TRIS pH 6.0, 100 mM NaCl, 1 mM dithiothreitol (DTT)).
(§2) Enzymatic assay was performed in a HEPES buffer (50 mM pH7.6 1 mM DTT, 2% glycerol, 0.5 mM EDTA) or in a Tris buffer (40 mM pH7.4 1 mM DTT, 5% glycerol, 0.05 mg/ml BSA) respectively, following manufacturer's instructions. Compounds were added to the reaction mixture just prior to the substrate. The enzymatic reaction kinetics was monitored through the apparition of fluorescence due to the hydrolysis of the peptidyl Ub-AMC or Ub-Rho bound over 20 or 30 minutes.
(§3) Medium value out of duplicates is reported.

[2] = target: T2, USP8^CD (purified catalytic domain of USP8) (Homo sapiens, UniProt P40818); assay: Inhibition of purified USP8^CD enzymatic activity (Ub-AMC or Ub-Rho substrate); type: biochemical; settings: for inhibition at 0.01 µM: 0.01 μM compound; for inhibition at 0.05 µM: 0.05 μM compound; for inhibition at 0.1 µM: 0.1 μM compound; for inhibition at 0.5 µM: 0.5 μM compound; for inhibition at 1 µM: 1 μM compound; for inhibition at 5 µM: 5 μM compound; for inhibition at 10 µM: 10 μM compound; for inhibition at 25 µM: 25 μM compound; for inhibition at 50 µM: 50 μM compound; for IC50: read-out: IC50 USP8 CD
T2 construct: the purified catalytic domain of USP8 (USP8^CD, in-house purified); made in house; host or cells: E. coli BL21 Gold
T2 sequence (P40818 777-1109 limits assumed): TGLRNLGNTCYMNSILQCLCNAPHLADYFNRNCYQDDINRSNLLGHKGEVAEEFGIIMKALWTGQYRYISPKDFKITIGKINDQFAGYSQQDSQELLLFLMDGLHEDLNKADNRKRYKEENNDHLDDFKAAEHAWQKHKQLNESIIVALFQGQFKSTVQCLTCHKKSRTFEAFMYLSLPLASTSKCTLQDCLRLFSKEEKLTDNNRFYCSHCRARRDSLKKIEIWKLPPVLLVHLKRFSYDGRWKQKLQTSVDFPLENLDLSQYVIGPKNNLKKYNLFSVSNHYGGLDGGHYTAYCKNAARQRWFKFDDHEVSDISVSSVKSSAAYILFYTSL
Experimental: as §1
For His-tagged USP8CD, cells were resuspended in buffer A (50 mM TRIS pH 8.0, 500 mM NaCl, 2 mM Imidazole) and lysed using a sonicator. The lysate was clarified by centrifugation and applied to Ni Sepharose6 Fast Flow resin (GE Healthcare). The resin was sequentially washed first with buffer A containing 10 mM Imidazole then with buffer A containing 20 mM Imidazole, and finally with buffer A containing 50 mM Imidazole. Protein sample was eluted from the resin using buffer A containing 300 mM Imidazole. The eluted protein was buffer exchanged by gel-filtration on a Superdex 200 10/300 GL column (GE Healthcare) equilibrated in Buffer B (20 mM HEPES pH 7.5, 300 mM NaCl, 2 mM dithiothreitol (DTT)).
as §2, §3

[3] = Ub-AMC substrate at 1 μM, Table 2b

inhibition at 0.01 µM ([1]; Table 1c) [%]	inhibition at 0.05 µM ([1]; Table 1c) [%]	inhibition at 0.1 µM ([1]; Table 1c) [%]	inhibition at 0.5 µM ([1]; Table 1c) [%]	inhibition at 1 µM ([1]; Table 1b) [%]	inhibition at 1 µM ([1]; Table 1c) [%]	inhibition at 5 µM ([1]; Table 1b) [%]	inhibition at 5 µM ([1]; Table 1c) [%]	inhibition at 10 µM ([1]; Table 1c) [%]	inhibition at 25 µM ([1]; Table 1b) [%]	inhibition at 50 µM ([1]; Table 1b) [%]	IC50 [1] [µM]	inhibition at 0.01 µM ([2]; Table 1d) [%]	inhibition at 0.05 µM ([2]; Table 1d) [%]	inhibition at 0.1 µM ([2]; Table 1d) [%]	inhibition at 1 µM ([2]; Table 1b) [%]	inhibition at 5 µM ([2]; Table 1b) [%]	inhibition at 25 µM ([2]; Table 1b) [%]	inhibition at 50 µM ([2]; Table 1b) [%]	IC50 [2, 3] [µM]	SMILES	also measured
19	3	3	23	0	37	1	-10	17	16	30	> 10	24	16	14	68	51	70	83	0.4	O=C1c2ccccc2C(=O)c2nc(CS(=O)(=O)c3cccc(Cl)c3)c(CS(=O)(=O)c3cccc(Cl)c3)nc21 [OVM15]	inhibition at 0.5 µM ([2]; Table 1d): 18%; inhibition at 1 µM ([2]; Table 1d): 64%; inhibition at 5 µM ([2]; Table 1d): 52%; inhibition at 10 µM ([2]; Table 1d): 51%; IC50 ([2]; Ub-Rhodamine substrate at 0.1 μM, Table 2c): 0.4 µM
–	–	–	–	–	–	–	–	–	–	–	17	–	–	–	–	–	–	–	4.5	O=C1c2ccccc2C(=O)c2nc(CBr)c(CBr)nc21 [PCR8132]	–
–	–	–	–	1	–	26	–	–	42	80	–	–	–	–	10	56	92	104	–	O=C1c2ccccc2C(=O)c2nc(CS(=O)(=O)c3ccc(Br)s3)c(CS(=O)(=O)c3ccc(Br)s3)nc21 [OVM16]	–
–	–	–	–	-11	–	9	–	–	27	25	–	–	–	–	25	33	68	85	–	O=C1c2ccccc2C(=O)c2nc(CS(=O)(=O)c3cccc(C(F)(F)F)c3)c(CS(=O)(=O)c3cccc(C(F)(F)F)c3)nc21 [OVM17]	–
-20	-26	-22	16	69	18	53	-1	4	94	97	> 10	-5	12	24	83	92	100	103	2.2	O=C1c2ccccc2C(=O)c2nc(CS(=O)(=O)c3ccc(F)c(F)c3F)c(CS(=O)(=O)c3ccc(F)c(F)c3F)nc21 [OVM23]	inhibition at 0.5 µM ([2]; Table 1d): 20%; inhibition at 1 µM ([2]; Table 1d): 34%; inhibition at 5 µM ([2]; Table 1d): 74%; inhibition at 10 µM ([2]; Table 1d): 80%
